Source: US10092574B2, “Inhibitors of polynucleotide repeat-associated RNA foci and uses thereof” (VALORISATION-RECHERCHE, LIMITED PARTNERSHIP, priority 2013, dated 2018)
“Also recorded” adds a separate entry of the source.

Legend:
Type in all cases: cell-based, human
CUGBP1 = test: Western blot of CUGBP1 protein levels in myoblasts; settings: DM1 myoblasts, 20 μM, 7 days (FIG. 7)
Description: Human myoblasts were obtained from the Myosix institute associated with the Association Frangaise contre les Myopathies (AFM). Five primary myoblast lines were obtained as controls, and one line from a DM1 patient with a 3.8 Kb CTG triplet amplification corresponding to approximately 1250 CTG repeats. The human myoblasts are cultivated in HAM-F10 media (SIGMA N6635) with 15% FBS, 1% chick embryo extract, and 390 ng/ml of dexamethasone. One day before adding compounds, 2×10^5 cells were plated in 100 mm plates (for CUGBP1 western blot or RT-PCR alternative splicing assay) or 2×10^4 cells/well are seeded in 12-well plates containing 12 mm round glass coverslips (for FISH to detect RNA foci). One day after plating, media is replaced with fresh media containing the compounds at the desired concentration in this manner: the media is put in a screw-cap tube and heated at 37° C. The 20 mM compound stock in 100% DMSO is pipetted directly into the media and the tube is mixed well by inversion and gentle vortexing, and immediately overlayed on the cells. Pure DMSO is used for the control cells. Final concentrations on myoblasts are never higher than 0.5%. This procedure is repeated twice during the seven days of treatment, the media is thus replaced with fresh media containing compound every 2-3 days. Cells are collected or fixed for FISH after one week.
For Western blots, CUGBP1 was detected with the 3B1-3D11 monoclonal antibody (mAb) (SIGMA C5112) and GAPDH was detected with the 6C5 mAb (Millipore MAB374). The enhanced chemiluminescence signal (ECL) was acquired and quantified with the ChemiDoc™ MP imaging system (Bio-Rad). For alternative splicing assays, total RNA was collected with Trizol™ (Invitrogen), and 1 μg was used for reverse transcription with random primers with the RevertAid™ H Minus M-MuL RT (Fermentas) according to manufacturer's instructions. For MBNL2, PCR amplification was performed with primers 5′-[…]-3′ (SEQ ID NO:1) and 5′-[…]-3′ (SEQ ID NO:2). SERCA1 was amplified with primers 5′-[…]-3′ (SEQ ID NO:3) and 5′-[…]-3′ (SEQ ID NO:4). For TNNT2 (cardiac Troponin T), PCR was carried out with primers 5′-[…]-3′ (SEQ ID NO:5) and 5′-[…]-3′ (SEQ ID NO:6). The alternative splicing of the hnRNPA2/B1 transcript was detected with the primers 5′-[…]-3′ (SEQ ID NO:7) and 5′-[…]-3′ (SEQ ID NO:8). PCR was performed with Taq using standard conditions but the number of amplification cycles was optimized to be in the quantitative range for each gene. The products of PCR amplification were resolved on 3.5% agarose gels containing Gelred™ (Biotium) and images were acquired and quantified with the ChemiDoc™ MP imaging system (Bio-Rad). […]

[1] = tested on: MBNL2, MBNL1, Sercal and TNNT2 pre-mRNAs; test: Splicing assays on the panel of MBNL2, MBNL1, Sercal and TNNT2 pre-mRNAs in DM1 myoblasts; settings: 20 μM, 7 days (FIG. 11)
Description: Human myoblasts were obtained from the Myosix institute associated with the Association Frangaise contre les Myopathies (AFM). Five primary myoblast lines were obtained as controls, and one line from a DM1 patient with a 3.8 Kb CTG triplet amplification corresponding to approximately 1250 CTG repeats. The human myoblasts are cultivated in HAM-F10 media (SIGMA N6635) with 15% FBS, 1% chick embryo extract, and 390 ng/ml of dexamethasone. One day before adding compounds, 2×10^5 cells were plated in 100 mm plates (for CUGBP1 western blot or RT-PCR alternative splicing assay) or 2×10^4 cells/well are seeded in 12-well plates containing 12 mm round glass coverslips (for FISH to detect RNA foci). […]
For Western blots, CUGBP1 was detected with the 3B1-3D11 monoclonal antibody (mAb) (SIGMA C5112) and GAPDH was detected with the 6C5 mAb (Millipore MAB374). The enhanced chemiluminescence signal (ECL) was acquired and quantified with the ChemiDoc™ MP imaging system (Bio-Rad). […] The alternative splicing of the hnRNPA2/B1 transcript was detected with the primers 5′-[…]-3′ (SEQ ID NO:7) and 5′-[…]-3′ (SEQ ID NO:8). PCR was performed with Taq using standard conditions but the number of amplification cycles was optimized to be in the quantitative range for each gene. […]

Normal or DM1 myoblasts = test: Cytotoxicity assay (Hoescht 33342 / propidium iodide, High Content Screening microscope); settings: for cellular toxicity: 7 days (FIG. 10)
Description: The cellular toxicity of compounds 15 and 32, and their analogs was also measured using a validated cytotoxicity assay. Normal or DM1 myoblasts were treated with 20 μM of compound or DMSO. The ratio of viable cells was measured with a High Content Screening microscope in live cells treated with Hoescht 33342 (labels all cells) and propidium iodide (labels dead cells). The total number of cells was counted and the number of dead cells was subtracted to obtain the number of viable cells, which is presented as a ratio (drug-treated versus DMSO-treated cells). The percentage of dead cells was also measured using propidium iodide.
The cellular toxicity of the compounds was also measured in a dose-response assay. In this assay, normal (M908) and patient (DM1) myoblasts were treated for 7 days with compound 32 or 196 at concentrations varying from 5 to 60 μM. Cell number and cell death was quantified by High Content Screening microscope, as specified above. […] Indeed, the ratio of viable cells at 20 μM of compound 15 is 0.22 (FIG. 10), while for compound 196, an analogue of compound 15, it is above 1 at the same concentration (FIG. 14C).

Q: For `CCCc1c(C(=O)N2CCC(c3ccccc3OC)CC2)cnn1-c1ccccc1` [Compound 43], which “reduction of CUGBP1 levels” value (CUGBP1) is on record?
A: The value was 45%.

Q: With `CCCN(CCC)S(=O)(=O)c1ccc(NC(=O)c2cnn(-c3ccccc3)c2C)cc1` [Compound 196, N-(4-(N,N-Dipropylsulfamoyl)phenyl)-5-methyl-1-phenyl-1H-pyrazole-4-carboxamide] as the compound, how does the “correction of mis-splicing of all the pre-mRNAs tested” value [1] read?
A: The value was “significantly corrects mis-splicing of all the pre-mRNAs tested”.

Q: And the “ratio of viable cells (drug-treated versus DMSO-treated)” value (Normal or DM1 myoblasts; 20 μM, 7 days (FIG. 10, FIG. 14C))?
A: Its value is “above 1”.

Q: And the “main phenotype at higher concentrations” value (Normal or DM1 myoblasts; normal (M908) and DM1 myoblasts, 7 days, 5 to 60 μM)?
A: The value was “cytostatic effect”.

Q: And the “cytotoxicity in dose-response assay” value (Normal or DM1 myoblasts; normal (M908) and DM1 myoblasts, 7 days, concentration of 20 μM and below (FIGS. 14A-D))?
A: Its value is “little cytotoxicity”.

Q: `CCC(C(=O)Nc1ccc(S(=O)(=O)NC23CC4CC(CC(C4)C2)C3)cc1)c1ccccc1` (stereo not shown) [Compound 31] was tested. Which cellular toxicity (Normal or DM1 myoblasts; 20 μM) did it give?
A: Its cellular toxicity is “exhibits cellular toxicity; also recorded: some toxicity”.

Q: `Cc1c(C(=O)N(Cc2ccccc2)Cc2cccs2)cnn1-c1ccc(Cl)cc1` [Compound 46] was tested. Which cellular toxicity (Normal or DM1 myoblasts; 20 μM) did it give?
A: The cellular toxicity was “little toxicity”.
